Experimental data: patent US20110039721A1, “METHOD FOR PREDICTION ABOUT CARCINOGENICITY OF SUBSTANCE IN RODENT” (Chemicals Evaluation and Research Institute, priority 2007, published 2011)

System: mRNA expressed from the genes (A) to (D) in rat liver
Test: Behavior of genes (mRNA expression level, oligo-DNA microarray) in rat liver after 28-day oral administration
Assay type: in vivo
Method: A test solution was prepared by dissolving each of the carcinogens and the non-carcinogens shown in Tables 2 to 6 in the corresponding solvent shown in Tables 2 to 6. Each of the thus prepared test solutions and the solvents used for the preparation was administered by oral gavage to rats in each group. As the rats, male rats (F344 SPF rats) at 5 weeks of age obtained from Charles River Laboratories Japan, Inc. were used. The animals were divided into groups, each containing four individuals. The volume of the solvent administered to the vehicle control group was set to the same volume as that of the test solution administered to the carcinogen administration group or the non-carcinogen administration group. The administration of the test solution or the solvent was performed once daily for 28 days. Apiece was excised from the liver of each of the rats after a lapse of 28 days from the initiation of the administration, and the total RNA was extracted and purified.
The expression level of mRNA was compared between each of the chemical substance administration groups and the corresponding vehicle control group, and genes that satisfy the requirements described in (A) to (D) were selected, respectively.
The case where the expression level of mRNA in the carcinogen administration group or the non-carcinogen administration group is 1.5 times or more or 1/1.5 or less of the expression level of the corresponding mRNA expressed in the control group was determined to be significant. In this connection, the determination as to whether or not the change is significant was performed by taking into consideration the direction of increase or decrease in the expression level. In the case where the direction of increase or decrease is different as compared with the case where another carcinogen was administered, the change was determined to be not significant.

[1] = gene group (A), Unigene No. Rn.167075, mRNA vs vehicle control group
[2] = gene group (C), Unigene No. Rn.120914, mRNA vs vehicle control group
[3] = (C), Unigene Rn.120914, defined direction +, rat liver, oral once daily 28 days

Structure (SMILES): Clc1c(Cl)c(Cl)c(Cl)c(Cl)c1Cl [TS020, Hexachlorobenzene]
- Behavior of gene caused by administration of chemical substance, Gene No. 4846 (gene group (A), Unigene No. Rn.144554, mRNA vs vehicle control group): −
- Behavior of gene caused by administration of chemical substance, Gene No. 2026 [1]: −
- Behavior of gene caused by administration of chemical substance, Gene No. 4218 [1]: −
- Behavior of gene caused by administration of chemical substance, Gene No. 6182 (gene group (A), Unigene No. Rn.5834, mRNA vs vehicle control group): +
- Behavior of gene caused by administration of chemical substance, Gene No. 5600 (gene group (A), Unigene No. Rn.9836, mRNA vs vehicle control group): −
- Behavior of gene caused by administration of chemical substance, Gene No. 1494 (gene group (B), Unigene No. Rn.1430, mRNA vs vehicle control group): +
- Behavior of gene caused by administration of chemical substance, Gene No. 2045 (gene group (B), Unigene No. Rn.19329, mRNA vs vehicle control group): +
- Behavior of gene caused by administration of chemical substance, Gene No. 2203 (gene group (B), Unigene No. Rn.21240, mRNA vs vehicle control group): +
- Behavior of gene caused by administration of chemical substance, Gene No. 533 (gene group (C), Unigene No. Rn.106184, mRNA vs vehicle control group): +
- Behavior of gene caused by administration of chemical substance, Gene No. 725 (gene group (C), Unigene No. Rn.108075, mRNA vs vehicle control group): −
- Behavior of gene caused by administration of chemical substance, Gene No. 1163 (gene group (C), Unigene No. Rn.11766, mRNA vs vehicle control group): −
- Behavior of gene caused by administration of chemical substance, Gene No. 4973 (gene group (C), Unigene No. Rn.118529, mRNA vs vehicle control group): −
- Behavior of gene caused by administration of chemical substance, Gene No. 4095 (gene group (C), Unigene No. Rn.119024, mRNA vs vehicle control group): −
- Behavior of gene caused by administration of chemical substance, Gene No. 1334 [2]: −
- Behavior of gene caused by administration of chemical substance, Gene No. 6620 [2]: −
- Behavior of gene caused by administration of chemical substance, Gene No. 6303 (gene group (C), Unigene No. Rn.123063, mRNA vs vehicle control group): −
- Behavior of gene caused by administration of chemical substance, Gene No. 5878 (gene group (C), Unigene No. Rn.143213, mRNA vs vehicle control group): −
- Behavior of gene caused by administration of chemical substance, Gene No. 1131 (gene group (C), Unigene No. Rn.144946, mRNA vs vehicle control group): −
- Behavior of gene caused by administration of chemical substance, Gene No. 1562 (gene group (C), Unigene No. Rn.14744, mRNA vs vehicle control group): −
- Behavior of gene caused by administration of chemical substance, Gene No. 1741 (gene group (C), Unigene No. Rn.1647, mRNA vs vehicle control group): −
- Behavior of gene caused by administration of chemical substance, Gene No. 893 (gene group (C), Unigene No. Rn.164817, mRNA vs vehicle control group): −
- Behavior of gene caused by administration of chemical substance, Gene No. 6026 (gene group (C), Unigene No. Rn.167685, mRNA vs vehicle control group): −
- Behavior of gene caused by administration of chemical substance, Gene No. 154 (gene group (C), Unigene No. Rn.185941, mRNA vs vehicle control group): −
- Behavior of gene caused by administration of chemical substance, Gene No. 1993 (gene group (C), Unigene No. Rn.18728, mRNA vs vehicle control group): −
- Behavior of gene caused by administration of chemical substance, Gene No. 813 (gene group (C), Unigene No. Rn.201760, mRNA vs vehicle control group): −
- Behavior of gene caused by administration of chemical substance, Gene No. 2494 (gene group (C), Unigene No. Rn.23969, mRNA vs vehicle control group): −
- Behavior of gene caused by administration of chemical substance, Gene No. 2546 (gene group (C), Unigene No. Rn.24561, mRNA vs vehicle control group): −
- Behavior of gene caused by administration of chemical substance, Gene No. 3776 (gene group (C), Unigene No. Rn.43232, mRNA vs vehicle control group): −
- Behavior of gene caused by administration of chemical substance, Gene No. 3929 (gene group (C), Unigene No. Rn.4620, mRNA vs vehicle control group): −
- Behavior of gene caused by administration of chemical substance, Gene No. 1119 (gene group (C), Unigene No. Rn.9757, mRNA vs vehicle control group): −
- Behavior of gene caused by administration of chemical substance, Gene No. 6742 (gene group (C), Unigene No. Rn.9779, mRNA vs vehicle control group): −
- Behavior of gene caused by administration of chemical substance, Gene No. 5634 (gene group (C), Unigene No. Rn.9862, mRNA vs vehicle control group): −
- Behavior of gene caused by administration of chemical substance, Gene No. 5726 (gene group (D), Unigene No. Rn.9939, mRNA vs vehicle control group): −

Structure (SMILES): C1COCCO1 [TS027, 1,4-Dioxane]
- Behavior of gene caused by administration of chemical substance, Gene No. 4846 ((A), Unigene Rn.144554, defined direction +, rat liver, oral once daily 28 days): +
- Behavior of gene caused by administration of chemical substance, Gene No. 4218 ((A), Unigene Rn.167075, defined direction +, rat liver, oral once daily 28 days, significant = 1.5 times or more or 1/1.5 or less of control): +
- Behavior of gene caused by administration of chemical substance, Gene No. 2026 ((A), Unigene Rn.167075, defined direction −, rat liver, oral once daily 28 days): +
- Behavior of gene caused by administration of chemical substance, Gene No. 6182 ((A), Unigene Rn.5834, defined direction +, rat liver, oral once daily 28 days): +
- Behavior of gene caused by administration of chemical substance, Gene No. 5600 ((A), Unigene Rn.9836, defined direction +, rat liver, oral once daily 28 days): +
- Behavior of gene caused by administration of chemical substance, Gene No. 1494 ((B), Unigene Rn.1430, defined direction −, rat liver, oral once daily 28 days): +
- Behavior of gene caused by administration of chemical substance, Gene No. 2045 ((B), Unigene Rn.19329, defined direction +, rat liver, oral once daily 28 days): −
- Behavior of gene caused by administration of chemical substance, Gene No. 2203 ((B), Unigene Rn.21240, defined direction +, rat liver, oral once daily 28 days): −
- Behavior of gene caused by administration of chemical substance, Gene No. 533 ((C), Unigene Rn.106184, defined direction +, rat liver, oral once daily 28 days): +
- Behavior of gene caused by administration of chemical substance, Gene No. 725 ((C), Unigene Rn.108075, defined direction −, rat liver, oral once daily 28 days): −
- Behavior of gene caused by administration of chemical substance, Gene No. 1163 ((C), Unigene Rn.11766, defined direction +, rat liver, oral once daily 28 days): −
- Behavior of gene caused by administration of chemical substance, Gene No. 4973 ((C), Unigene Rn.118529, defined direction −, rat liver, oral once daily 28 days): −
- Behavior of gene caused by administration of chemical substance, Gene No. 4095 ((C), Unigene Rn.119024, defined direction −, rat liver, oral once daily 28 days): −
- Behavior of gene caused by administration of chemical substance, Gene No. 1334 [3]: −
- Behavior of gene caused by administration of chemical substance, Gene No. 6620 [3]: −
- Behavior of gene caused by administration of chemical substance, Gene No. 6303 ((C), Unigene Rn.123063, defined direction −, rat liver, oral once daily 28 days): −
- Behavior of gene caused by administration of chemical substance, Gene No. 5878 ((C), Unigene Rn.143213, defined direction −, rat liver, oral once daily 28 days): −
- Behavior of gene caused by administration of chemical substance, Gene No. 1131 ((C), Unigene Rn.144946, defined direction −, rat liver, oral once daily 28 days): −
- Behavior of gene caused by administration of chemical substance, Gene No. 1562 ((C), Unigene Rn.14744, defined direction −, rat liver, oral once daily 28 days): +
- Behavior of gene caused by administration of chemical substance, Gene No. 1741 ((C), Unigene Rn.1647, defined direction −, rat liver, oral once daily 28 days): +
- Behavior of gene caused by administration of chemical substance, Gene No. 893 ((C), Unigene Rn.164817, defined direction +, rat liver, oral once daily 28 days): −
- Behavior of gene caused by administration of chemical substance, Gene No. 6026 ((C), Unigene Rn.167685, defined direction −, rat liver, oral once daily 28 days): −
- Behavior of gene caused by administration of chemical substance, Gene No. 154 ((C), Unigene Rn.185941, defined direction −, rat liver, oral once daily 28 days): +
- Behavior of gene caused by administration of chemical substance, Gene No. 1993 ((C), Unigene Rn.18728, defined direction −, rat liver, oral once daily 28 days): +
- Behavior of gene caused by administration of chemical substance, Gene No. 813 ((C), Unigene Rn.201760, defined direction +, rat liver, oral once daily 28 days): +
- Behavior of gene caused by administration of chemical substance, Gene No. 2494 ((C), Unigene Rn.23969, defined direction +, rat liver, oral once daily 28 days): −
- Behavior of gene caused by administration of chemical substance, Gene No. 2546 ((C), Unigene Rn.24561, defined direction −, rat liver, oral once daily 28 days): −
- Behavior of gene caused by administration of chemical substance, Gene No. 3776 ((C), Unigene Rn.43232, defined direction −, rat liver, oral once daily 28 days): −
- Behavior of gene caused by administration of chemical substance, Gene No. 3929 ((C), Unigene Rn.4620, defined direction +, rat liver, oral once daily 28 days): −
- Behavior of gene caused by administration of chemical substance, Gene No. 1119 ((C), Unigene Rn.9757, defined direction +, rat liver, oral once daily 28 days): +
- Behavior of gene caused by administration of chemical substance, Gene No. 6742 ((C), Unigene Rn.9779, defined direction +, rat liver, oral once daily 28 days): +
- Behavior of gene caused by administration of chemical substance, Gene No. 5634 ((C), Unigene Rn.9862, defined direction −, rat liver, oral once daily 28 days): −
- Behavior of gene caused by administration of chemical substance, Gene No. 5726 ((D), Unigene Rn.9939, defined direction −, rat liver, oral once daily 28 days): −
